The target in one experiment is T1, 5-HT transporter (Rattus norvegicus, UniProt P31652).
T1 construct: from tissue; host or cells: rat brain synaptosomes (P2 fraction) from medulla and pons
Nature of the experiment: 5-HT uptake inhibition in rat brain synaptosomes (medulla and pons), [3H]-5-HT. Format: biochemical. In a few lines:
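Freshly isolated P2 synaptosomes taken from rat hypothalamus (NA) or medulla/pons (5-HT) were incubated at room temperature under O2 with [3H]-NA for 7.5 min or [3H]-5-HT for 5 min. Uptake was measured as filter-retained radioactivity by scintillation counting.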

In another experiment the target is T2, NA transporter (Rattus norvegicus, UniProt Q63380).
T2 construct: from tissue; host or cells: rat brain synaptosomes (P2 fraction) from hypothalamus
Nature of the experiment: noradrenalin uptake inhibition in rat brain synaptosomes (hypothalamus), [3H]-NA. Format: biochemical. From the text: a) Method for Determining Noradrenalin and 5-HT Uptake Inhibition:
Synaptosomes from rat brain regions are freshly isolated for in vitro studies, as described in the publication “The isolation of nerve endings from brain” by E. G. Gray and V. P. Whittaker, J. Anatomy 96, pages 79-88, 1962. The corresponding literature description is hereby introduced as a reference and is deemed to be part of the disclosure.
The tissue (hypothalamus for the determination of noradrenalin uptake inhibition and medulla and pons for the determination of 5-HT uptake inhibition) is homogenised in ice-cooled 0.32 M sucrose (100 mg of tissue/1 mL) in a glass homogeniser with Teflon pestle using five complete up and down strokes at 840 revolutions/minute.
The homogenate is centrifuged at 4° C. for 10 minutes at 1000 g. After subsequent centrifugation at 17000 g for 55 minutes, the synaptosomes (P2 fraction) are obtained, which are resuspended in 0.32 M […] (0.5 mL/100 mg of original weight).
The particular uptake is measured in a 96-well microtitre plate. The volume is 250 μl and the incubation proceeds at room temperature (approx. 20-25° C.) under an O2 atmosphere.
The incubation time is 7.5 minutes for [^3H]-NA and 5 minutes for [^3H]-5-HT. The 96 samples are then filtered through a Unifilter GF/B® microtitre plate (Packard) and washed with 200 mL of incubated buffer using a “Brabdel MPXRI-96T Cell-Harvester”. The Unifilter GF/B plate is dried for 1 hour at 55° C. The plate is then sealed with a Back Seal® (Packard) and 35 μl of scintillation fluid are added per well (Ultima Gold®, Packard). After sealing with a top Seal® (Packard) and establishing an equilibrium (around 5 hours), radioactivity is determined in a “Trilux 1450 Microbeta” (Wallac).
The quantity of protein used in the above determination corresponds to the values known from the literature, as for example described in “Protein measurement with the folin phenol reagent”, Lowry et al., J. Biol. Chem., 193, 265-275, 1951.
A detailed description of the method may additionally be found in the literature, for example in M. Ch. Frink, H.-H. Hennies, W. Engelberger, M. Haurand and B. Wilffert (1996) Arzneim.-Forsch./Drug Res. 46 (III), 11, 1029-1036.

The inhibition is the share of the control response that was lost under treatment.

T1 sequence (P31652 whole entry): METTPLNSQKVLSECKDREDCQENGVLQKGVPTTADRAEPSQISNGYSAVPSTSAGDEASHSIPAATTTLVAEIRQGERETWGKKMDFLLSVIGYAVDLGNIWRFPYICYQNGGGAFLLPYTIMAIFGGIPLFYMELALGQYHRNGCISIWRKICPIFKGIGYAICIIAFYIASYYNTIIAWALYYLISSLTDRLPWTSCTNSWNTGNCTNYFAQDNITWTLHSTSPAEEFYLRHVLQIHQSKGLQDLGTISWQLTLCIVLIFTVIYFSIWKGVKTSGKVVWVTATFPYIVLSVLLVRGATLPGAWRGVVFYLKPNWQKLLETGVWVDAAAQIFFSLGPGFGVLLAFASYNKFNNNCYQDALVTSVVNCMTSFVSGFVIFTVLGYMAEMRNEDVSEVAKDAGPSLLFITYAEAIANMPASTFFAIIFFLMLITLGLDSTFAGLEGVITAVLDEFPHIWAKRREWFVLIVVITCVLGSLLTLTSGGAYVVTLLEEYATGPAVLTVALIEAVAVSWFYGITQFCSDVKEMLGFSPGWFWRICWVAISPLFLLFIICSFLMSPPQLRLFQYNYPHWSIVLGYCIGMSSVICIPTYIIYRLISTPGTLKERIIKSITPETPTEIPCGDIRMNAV
T2 sequence (Q63380 1-617): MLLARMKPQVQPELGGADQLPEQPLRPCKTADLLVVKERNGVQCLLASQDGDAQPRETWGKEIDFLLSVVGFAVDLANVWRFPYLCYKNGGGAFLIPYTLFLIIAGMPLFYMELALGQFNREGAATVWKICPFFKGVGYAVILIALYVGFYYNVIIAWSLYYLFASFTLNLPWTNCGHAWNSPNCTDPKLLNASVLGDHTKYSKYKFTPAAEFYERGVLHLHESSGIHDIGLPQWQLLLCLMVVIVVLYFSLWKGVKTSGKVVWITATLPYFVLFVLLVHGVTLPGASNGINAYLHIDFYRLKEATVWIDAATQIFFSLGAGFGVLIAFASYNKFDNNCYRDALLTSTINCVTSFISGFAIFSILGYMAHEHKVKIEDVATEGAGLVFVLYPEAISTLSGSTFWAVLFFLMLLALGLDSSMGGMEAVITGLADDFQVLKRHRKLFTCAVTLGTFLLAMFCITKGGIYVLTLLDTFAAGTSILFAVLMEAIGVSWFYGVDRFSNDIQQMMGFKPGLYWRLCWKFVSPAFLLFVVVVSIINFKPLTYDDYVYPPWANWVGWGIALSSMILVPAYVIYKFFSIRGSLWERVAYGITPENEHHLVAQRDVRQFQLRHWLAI

As for `Cc1ccc(CN2CC3(CCN(C(=O)NCc4ccc(Cl)c(Cl)c4)CC3)OC2=O)cc1` [Example 36, 3-(4-methylbenzyl)-2-oxo-1-oxa-3,8-diazaspiro[4.5]decane-8-carboxylic acid 3,4-dichlorobenzylamide], the inhibition at 10 µM at 5-HT transporter is 56%; on NA transporter, 60%.

For `COc1ccc(NC(=O)N2CCC3(CC2)CN(Cc2ccccc2)C(=O)O3)cc1` [Example 39, 3-benzyl-2-oxo-1-oxa-3,8-diazaspiro[4.5]decane-8-carboxylic acid (4-methoxyphenyl)amide], the inhibition at 10 µM was 42% on 5-HT transporter and 76% against NA transporter.

As for `O=C(NCc1ccc(Cl)c(Cl)c1)N1CCC2(CC1)CN(Cc1cccc(Br)c1)C(=O)O2` [Example 42, 3-(3-bromobenzyl)-2-oxo-1-oxa-3,8-diazaspiro[4.5]decane-8-carboxylic acid 3,4-dichlorobenzylamide], the inhibition at 10 µM was 60% against 5-HT transporter and 83% at NA transporter.

`O=C(NCc1ccc(Cl)c(Cl)c1)N1CCC2(CC1)CN(Cc1ccc3ccccc3c1)C(=O)O2` [Example 44, 3-naphthalen-2-ylmethyl-2-oxo-1-oxa-3,8-diazaspiro[4.5]decane-8-carboxylic acid 3,4-dichlorobenzylamide]: the inhibition at 10 µM on 5-HT transporter was found to be 57%; against NA transporter, 61%.

Turning to `COc1ccc(NC(=O)N2CCC3(CC2)CN(Cc2ccc4ccccc4c2)C(=O)O3)cc1` [Example 52, 3-naphthalen-2-ylmethyl-2-oxo-1-oxa-3,8-diazaspiro[4.5]decane-8-carboxylic acid (4-methoxyphenyl)amide], the inhibition at 10 µM at 5-HT transporter came out at 94%; on NA transporter it was 96%.

As to `CCOC(=O)c1cccc(NC(=O)N2CCC3(CC2)CN(Cc2ccc(C)cc2)C(=O)O3)c1` [Example 53, 3-{[3-(4-methylbenzyl)-2-oxo-1-oxa-3,8-diazaspiro[4.5]decane-8-carbonyl]amino}benzoic acid ethyl ester], the inhibition at 10 µM against 5-HT transporter amounted to 68%; against NA transporter, 81%.

Consider `O=C(NCCc1ccccc1)N1CCC2(CC1)CN(Cc1ccccc1-c1ccccc1)C(=O)O2` [Example 57, 3-biphenyl-2-ylmethyl-2-oxo-1-oxa-3,8-diazaspiro[4.5]decane-8-carboxylic acid phenethylamide], for which the inhibition at 10 µM against 5-HT transporter is 50%; on NA transporter, 55%.

For `CCOC(=O)c1cccc(NC(=O)N2CCC3(CC2)CN(Cc2cccc(C#N)c2)C(=O)O3)c1` [Example 61, 3-{[3-(3-cyanobenzyl)-2-oxo-1-oxa-3,8-diazaspiro[4.5]decane-8-carbonyl]amino}benzoic acid ethyl ester], the inhibition at 10 µM amounted to 69% on 5-HT transporter and 77% against NA transporter.

Consider `COc1cccc(NC(=O)N2CCC3(CC2)CN(Cc2ccccc2-c2ccccc2)C(=O)O3)c1` [Example 62, 3-biphenyl-2-ylmethyl-2-oxo-1-oxa-3,8-diazaspiro[4.5]decane-8-carboxylic acid (3-methoxyphenyl)amide], for which the inhibition at 10 µM against 5-HT transporter worked out at 57%; on NA transporter, 67%.

On to `COc1ccc([N+](=O)[O-])cc1CN1CC2(CCN(C(=O)NC(C)c3cccc4ccccc34)CC2)OC1=O` (centres unmarked) [Example 63, 3-(2-methoxy-5-nitrobenzyl)-2-oxo-1-oxa-3,8-diazaspiro[4.5]decane-8-carboxylic acid (1-naphthalen-1-yl-ethyl)amide], for which the inhibition at 10 µM at 5-HT transporter came to 84%; against NA transporter it was 41%.

`O=C1OC2(CCN(Cc3ccc([N+](=O)[O-])cc3)CC2)CN1Cc1ccc(F)c(F)c1` [Example 74, 3-(3,4-difluorobenzyl)-8-(4-nitrobenzyl)-1-oxa-3,8-diazaspiro[4.5]decan-2-one]: the inhibition at 10 µM was found to be 66% against 5-HT transporter and 57% at NA transporter.

In the case of `COc1ccc(-c2noc(CN3CCC4(CC3)CN(Cc3ccc(F)c(F)c3)C(=O)O4)n2)cc1` [Example 77, 3-(3,4-difluorobenzyl)-8-[3-(4-methoxyphenyl)-[1,2,4]oxadiazol-5-ylmethyl]-1-oxa-3,8-diazaspiro[4.5]decan-2-one], the inhibition at 10 µM came out at 50% on 5-HT transporter and 64% against NA transporter.

Consider `O=C1OC2(CCN(Cc3ccc(OC(F)(F)F)cc3)CC2)CN1Cc1ccccc1` [Example 78, 3-benzyl-8-(4-trifluoromethoxybenzyl)-1-oxa-3,8-diazaspiro[4.5]decan-2-one], for which the inhibition at 10 µM at 5-HT transporter was determined as 51%; against NA transporter, 53%.

For the molecule `COc1cccc(CN2CC3(CCN(Cc4ccc(Cl)cc4)CC3)OC2=O)c1` [Example 79, 8-(4-chlorobenzyl)-3-(3-methoxybenzyl)-1-oxa-3,8-diazaspiro[4.5]decan-2-one], the inhibition at 10 µM on 5-HT transporter turned out to be 67%; at NA transporter, 57%.

On to `Cc1csc(NC(=O)CN2CCC3(CC2)CN(Cc2ccc(F)c(F)c2)C(=O)O3)c1C#N` [Example 80, N-(3-cyano-4-methylthiophen-2-yl)-2-[3-(3,4-difluorobenzyl)-2-oxo-1-oxa-3,8-diazaspiro[4.5]dec-8-yl]acetamide], for which the inhibition at 10 µM at 5-HT transporter turned out to be 47%; against NA transporter, 45%.

Take `O=C(CN1CCC2(CC1)CN(Cc1ccccc1F)C(=O)O2)Nc1nc(-c2ccccc2)cs1` [Example 86, 2-[3-(2-fluorobenzyl)-2-oxo-1-oxa-3,8-diazaspiro[4.5]dec-8-yl]-N-(4-phenylthiazol-2-yl)acetamide]: the inhibition at 10 µM turned out to be 56% against 5-HT transporter and 79% at NA transporter.

On to `O=C(CN1CCC2(CC1)CN(Cc1ccccc1C(F)(F)F)C(=O)O2)Nc1ccc(OC(F)(F)F)cc1` [Example 87, 2-[2-oxo-3-(2-trifluoromethylbenzyl)-1-oxa-3,8-diazaspiro[4.5]dec-8-yl]-N-(4-trifluoromethoxyphenyl)acetamide], for which the inhibition at 10 µM at 5-HT transporter is 72%; at NA transporter, 59%.

As to `N#Cc1ccc(CN2CC3(CCN(Cc4cccc([N+](=O)[O-])c4)CC3)OC2=O)cc1` [Example 89, 4-[8-(3-nitrobenzyl)-2-oxo-1-oxa-3,8-diazaspiro[4.5]dec-3-ylmethyl]benzonitrile], the inhibition at 10 µM on 5-HT transporter is 63%; against NA transporter, 57%.

In the case of `O=C1OC2(CCN(C(=O)c3ccc(-c4ccccc4)cc3)CC2)CN1Cc1cccc(Br)c1` [Example 104, 8-(biphenyl-4-carbonyl)-3-(3-bromobenzyl)-1-oxa-3,8-diazaspiro[4.5]decan-2-one], the figures for the inhibition at 10 µM on 5-HT transporter and against NA transporter were 89% and 73%, respectively.

On to `O=C1OC2(CCN(C(=O)c3ccc([N+](=O)[O-])cc3)CC2)CN1Cc1cccc(Br)c1` [Example 109, 3-(3-bromobenzyl)-8-(4-nitrobenzoyl)-1-oxa-3,8-diazaspiro[4.5]decan-2-one], for which the results for the inhibition at 10 µM at 5-HT transporter and on NA transporter were 81% and 78%, respectively.

On to `COc1cc(OC)cc(C(=O)N2CCC3(CC2)CN(Cc2cccc(Br)c2)C(=O)O3)c1` [Example 137, 3-(3-bromobenzyl)-8-(3,5-dimethoxybenzoyl)-1-oxa-3,8-diazaspiro[4.5]decan-2-one], for which the inhibition at 10 µM against 5-HT transporter is 74%; against NA transporter, 84%.

As to `CCCc1ccc(C(=O)N2CCC3(CC2)CN(Cc2cccc(Br)c2)C(=O)O3)cc1` [Example 148, 3-(3-bromobenzyl)-8-(4-propylbenzoyl)-1-oxa-3,8-diazaspiro[4.5]decan-2-one], the inhibition at 10 µM against 5-HT transporter worked out at 73%; against NA transporter, 75%.
